# According to the supplement of paper PMC10307832:
# Legend:
# Assay in all cases: relative viability (nuclei count vs DMSO), 5 days (fraction); higher = more cells survive
# [1] = compound: CC(C)C[C@H](NC(=O)[C@H](Cc1ccccc1)NC(=O)c1cnccn1)B(O)O [Bortezomib] + Nc1nc2[nH]cc(CCc3ccc(C(=O)N[C@@H](CCC(=O)O)C(=O)O)cc3)c2c(=O)[nH]1 [Pemetrexed] (partner 0.2 µM)
# Method in brief: (§1)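 Values are medians from duplicate plates. Each reflects relative viability, defined as the nuclei count of treated wells over that of vehicle wells. Lung cancer cell lines in 1536-well plates were pin-tool dosed one day after seeding with one drug alone or with a fixed anchor-drug dose plus five library-drug doses (not always all listed) in √10 steps, then fixed, stained and imaged at 4× after 5 days.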
# [2] = compound: CC(C)C[C@H](NC(=O)[C@H](Cc1ccccc1)NC(=O)c1cnccn1)B(O)O [Bortezomib] + O=C(c1cc(Cc2n[nH]c(=O)c3ccccc23)ccc1F)N1CCN(C(=O)C2CC2)CC1 [Olaparib] (partner 8 µM)
# Method in brief: as §1
# [3] = compound: CC1=CC(=NN1)NC2=CC(=NC(=N2)/C=C/C3=CC=CC=C3)N4CCN(CC4)C + N=C(N)NC(=N)NCCc1ccccc1 [Phenformin] (partner 250 µM)
# Method in brief: as §1
# [4] = compound: COC1=CC(c2cc3ccccc3[nH]2)=N/C1=C\c1[nH]c(C)cc1C [Obatoclax] + C[C@@H](Oc1cc(-c2cnn(C3CCNCC3)c2)cnc1N)c1c(Cl)ccc(F)c1Cl [Crizotinib] (partner 1 µM)
# Method in brief: as §1
Cell Line,relative viability ([1]; first compound 0.0002 µM),relative viability ([1]; first compound 0.000632 µM),relative viability ([1]; first compound 0.002 µM),relative viability ([1]; first compound 0.006325 µM),relative viability ([1]; first compound 0.02 µM),relative viability ([2]; first compound 0.0002 µM),relative viability ([2]; first compound 0.000632 µM),relative viability ([2]; first compound 0.002 µM),relative viability ([2]; first compound 0.006325 µM),relative viability ([2]; first compound 0.02 µM),relative viability ([3]; first compound 0.08 µM),relative viability ([3]; first compound 0.253 µM),relative viability ([3]; first compound 0.8 µM),relative viability ([3]; first compound 2.53 µM),relative viability ([3]; first compound 8 µM),relative viability ([4]; first compound 0.01 µM),relative viability ([4]; first compound 0.03162 µM),relative viability ([4]; first compound 0.1 µM),relative viability ([4]; first compound 0.3162 µM),relative viability ([4]; first compound 1 µM)
EMC-BAC-2,0.415,0.44,0.443,0.326,0.266,0.469,0.486,0.487,0.258,0.185,0.511,0.559,0.432,0.228,0.0995,0.777,0.725,0.738,0.745,0.634
HARA,0.221,0.178,0.228,0.157,0.13,0.973,0.809,0.872,0.0712,0.0979,0.47,0.513,0.343,0.211,0.138,1.01,1.03,1.1,1.05,0.382
LU99A,0.158,0.167,0.198,0.174,0.169,0.238,0.26,0.242,0.154,0.122,0.748,0.707,0.716,0.411,0.153,0.614,0.498,0.569,0.236,0.233
LK-2,0.285,0.324,0.221,0.365,0.28,0.699,0.695,0.714,0.169,0.123,0.313,0.327,0.309,0.111,0.117,0.243,0.179,0.236,0.231,0.257
NCI-H441,0.248,0.244,0.253,0.104,0.118,0.446,0.601,0.165,0.11,0.102,0.909,0.955,0.797,0.192,0.156,0.676,0.742,0.724,0.604,0.549
NCI-H23,0.556,,0.595,0.23,0.143,0.362,,0.247,0.0989,0.0819,0.793,0.887,0.711,0.247,0.204,0.555,0.507,0.469,0.527,0.282
NCI-H647,0.17,0.199,0.134,0.0326,0.0194,0.518,0.374,0.148,0.0277,0.0271,0.481,0.634,0.47,0.0675,0.0451,0.997,1.13,0.762,0.286,0.133
201T,0.338,0.327,0.321,0.353,0.308,0.83,0.856,0.803,0.753,0.214,0.454,0.461,0.415,0.373,0.258,1.01,1.03,1.04,0.996,1.06
NCI-H1734,0.419,0.407,0.451,0.178,0.114,0.555,0.661,0.443,0.115,0.0968,0.417,0.375,0.391,0.162,0.104,0.665,0.701,,0.625,0.447
NCI-H596,0.487,0.488,0.45,0.268,0.221,0.723,0.709,0.445,0.186,0.187,0.767,0.807,0.627,0.608,0.259,0.987,0.898,0.946,0.655,0.565
